According to patent US9133163B2, “Dihydropyrazole GPR40 modulators” (Bristol-Myers Squibb Company, priority 2012, dated 2015):

Target: hGPR40 (Homo sapiens, UniProt O14842)
Assay: FDSS-based intracellular calcium assay
Type: cell-based
Design: 3xFLAG; expressed in transfected cells
Conditions: intracellular Ca2+ response, cells expressing GPR40
Description: FDSS-Based Intracellular Calcium Assay
Compounds are dissolved in DMSO and diluted to desired concentrations with assay buffer and added to the cells as 3× solution (20 μL per well). Run fluorescence/luminescence reader FDSS (Hamamatsu) to read intracellular Ca^2+ response.

hGPR40, sequence (O14842 whole entry): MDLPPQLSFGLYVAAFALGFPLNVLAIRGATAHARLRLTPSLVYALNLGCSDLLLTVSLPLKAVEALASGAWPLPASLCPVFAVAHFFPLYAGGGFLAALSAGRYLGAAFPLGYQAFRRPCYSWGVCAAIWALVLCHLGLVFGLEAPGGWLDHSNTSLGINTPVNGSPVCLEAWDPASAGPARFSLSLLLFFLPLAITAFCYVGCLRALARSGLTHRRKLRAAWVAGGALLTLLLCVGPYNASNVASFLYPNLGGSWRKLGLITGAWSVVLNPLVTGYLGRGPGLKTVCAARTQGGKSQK

Row | SMILES | EC50 [nM]
1 | C[C@@H]1C(C(F)(F)F)=NN(c2ccc(OC3CCN(c4ncccc4F)CC3)cc2)[C@H]1CC(=O)O [Example 41, 2-((4S,5S)-1-(4-((1-(3-Fluoropyridin-2-yl)piperidin-4-yl)oxy)phenyl)-4-methyl-3-(trifluoromethyl)-4,5-dihydro-1H-pyrazol-5-yl)acetic acid] | 628
2 | CC(C)c1cccc(N2CCC(Oc3ccc(N4N=C(C(F)(F)F)[C@@H](C)[C@@H]4CC(=O)O)cc3)CC2)c1 [Example 73, 2-((4S,5S)-1-(4-((1-(3-Isopropylphenyl)piperidin-4-yl)oxy)phenyl)-4-methyl-3-(trifluoromethyl)-4,5-dihydro-1H-pyrazol-5-yl)acetic acid] | 2120
3 | Cc1ccccc1N1CCC(Oc2ccc(N3N=C(C(F)(F)F)[C@@H](C)[C@@H]3CC(=O)O)cc2)CC1 [Example 39, 2-((4S,5S)-4-Methyl-1-(4-((1-(o-tolyl)piperidin-4-yl)oxy)phenyl)-3-(trifluoromethyl)-4,5-dihydro-1H-pyrazol-5-yl)acetic acid] | 498
4 | COc1ccc(F)c(N2CCC(Oc3ccc(N4N=C(C(F)(F)F)[C@@H](C)[C@@H]4CC(=O)O)cc3)C(F)C2)c1 (single isomer, unassigned) [Example 57 (Isomer 1)] | 292
5 | COc1cc(N2CCC(Oc3ccc(N4N=C(C(F)(F)F)[C@@H](C)[C@@H]4CC(=O)O)cc3)C(F)C2)c(Cl)cn1 (single isomer, unassigned) [Example A1, Isomer 2] | 218
6 | CCOc1ccc(F)c(N2CCC(Oc3ccc(N4N=C(C(F)(F)F)[C@@H](C)[C@@H]4CC(=O)O)cc3)C(CC)C2)c1 (single isomer, unassigned) [Example 25 (Isomer 1)] | 1020
7 | COc1ccc(Cl)c(N2CCC(Oc3ccc(N4N=C(C(F)(F)F)[C@@H](C)[C@@H]4CC(=O)O)cc3)CC2)n1 [Example 76, 2-((4S,5S)-1-(4-((1-(3-Chloro-6-methoxypyridin-2-yl)piperidin-4-yl)oxy)phenyl)-4-methyl-3-(trifluoromethyl)-4,5-dihydro-1H-pyrazol-5-yl)acetic acid] | 649
8 | COc1ccnc(N2CCC(Oc3ccc(N4N=C(C(F)(F)F)[C@@H](C)[C@@H]4CC(=O)O)cc3)CC2)c1 [Example 45, 2-((4S,5S)-1-(4-((1-(4-Methoxypyridin-2-yl)piperidin-4-yl)oxy)phenyl)-4-methyl-3-(trifluoromethyl)-4,5-dihydro-1H-pyrazol-5-yl)acetic acid] | 1520
9 | COc1ccc(F)c(N2CCC(Oc3ccc(N4N=C(C(F)(F)F)[C@@H](C)[C@@H]4CC(=O)O)cc3)C(F)C2)c1 (single isomer, unassigned) [Example 57 (Isomer 2)] | 119
10 | COc1ccc(F)c(N2CCC(Oc3ccc(N4N=C(C(F)(F)F)[C@@H](C)[C@@H]4CC(=O)O)cc3)C(F)C2)c1 (single isomer, unassigned) [Example 57 (Isomer 3)] | 716
11 | C[C@@H]1C(C(F)(F)F)=NN(c2ccc(OC3CCN(c4cccnc4)CC3)cc2)[C@H]1CC(=O)O [Example 75, 2-((4S,5S)-4-Methyl-1-(4-((1-(pyridin-3-yl)piperidin-4-yl)oxy)phenyl)-3-(trifluoromethyl)-4,5-dihydro-1H-pyrazol-5-yl)acetic acid] | 7680
12 | CCOc1ccc(F)c(N2CCC(Oc3ccc(N4N=C(C(F)(F)F)[C@@H](C)[C@@H]4CC(=O)O)cc3)C(C(C)C)C2)c1 (single isomer, unassigned) [Example 26 (Isomer 1)] | 1900
13 | C[C@@H]1C(C(F)(F)F)=NN(c2ccc(OC3CCN(c4ccccc4)CC3)cc2)[C@H]1CC(=O)O [Example 72, 2-((4S,5S)-4-Methyl-1-(4-((1-phenylpiperidin-4-yl)oxy)phenyl)-3-(trifluoromethyl)-4,5-dihydro-1H-pyrazol-5-yl)acetic acid] | 1930
14 | COc1cc(N2CCC(Oc3ccc(N4N=C(C(F)(F)F)[C@@H](C)[C@@H]4CC(=O)O)cc3)C(C)C2)c(Cl)cn1 (stereo partly drawn) [Example 81, Isomer 2, 2-((4S,5S)-1-(4-((1-(5-Chloro-2-methoxypyridin-4-yl)-3-methylpiperidin-4-yl)oxy)phenyl)-4-methyl-3-(trifluoromethyl)-4,5-dihydro-1H-pyrazol-5-yl)acetic acid] | 71
15 | CCC1C(C(F)(F)F)=NN(c2ccc(OC3CCN(c4cc(OC)ncc4Cl)CC3C)cc2)C1CC(=O)O (single isomer, unassigned) [Example 86, Isomer 2, 2-(1-(4-((1-(5-Chloro-2-methoxypyridin-4-yl)-3-methylpiperidin-4-yl)oxy)phenyl)-4-ethyl-3-(trifluoromethyl)-4,5-dihydro-1H-pyrazol-5-yl)acetic acid] | 599
16 | COc1ccc(Cl)c(N2CCC(Oc3ccc(N4N=C(C(F)(F)F)[C@@H](C)[C@@H]4CC(=O)O)cc3)CC2)c1 [Example 33, 2-((4S,5S)-1-(4-((1-(2-Chloro-5-methoxyphenyl)piperidin-4-yl)oxy)phenyl)-4-methyl-3-(trifluoromethyl)-4,5-dihydro-1H-pyrazol-5-yl)acetic acid] | 103
17 | COc1ccc(F)c(N2CCC(Oc3ccc(N4N=C(c5ncccn5)C(C)C4CC(=O)O)cc3)CC2)c1 (single isomer, unassigned) [Example 22, Isomer 1, 2-(1-(4-((1-(2-Fluoro-5-methoxyphenyl)piperidin-4-yl)oxy)phenyl)-4-methyl-3-(pyrimidin-2-yl)-4,5-dihydro-1H-pyrazol-5-yl)acetic acid] | 2040
18 | Cc1cccc(C)c1N1CCC(Oc2ccc(N3N=C(C(F)(F)F)[C@@H](C)[C@@H]3CC(=O)O)cc2)CC1 [Example 44, 2-((4S,5S)-1-(4-((1-(2,6-Dimethylphenyl)piperidin-4-yl)oxy)phenyl)-4-methyl-3-(trifluoromethyl)-4,5-dihydro-1H-pyrazol-5-yl)acetic acid] | 1340
19 | CCC1C(C(F)(F)F)=NN(c2ccc(OC3CCN(c4cc(OC)ncc4Cl)CC3C)cc2)C1CC(=O)O (single isomer, unassigned) [Example 86, Isomer 3, 2-(1-(4-((1-(5-Chloro-2-methoxypyridin-4-yl)-3-methylpiperidin-4-yl)oxy)phenyl)-4-ethyl-3-(trifluoromethyl)-4,5-dihydro-1H-pyrazol-5-yl)acetic acid] | 1930
20 | CCOc1ccc(F)c(N2CCC(Oc3ccc(N4N=C(C(F)(F)F)[C@@H](C)[C@@H]4CC(=O)O)cc3)CC2)c1 [Example 32, 2-((4S,5S)-1-(4-((1-(5-Ethoxy-2-fluorophenyl)piperidin-4-yl)oxy)phenyl)-4-methyl-3-(trifluoromethyl)-4,5-dihydro-1H-pyrazol-5-yl)acetic acid] | 217
21 | COc1cc(C)c(N2CCC(Oc3ccc(N4N=C(C(F)(F)F)[C@@H](C)[C@@H]4CC(=O)O)cc3)CC2)c(C)c1 [Example 51, 2-((4S,5S)-1-(4-((1-(4-Methoxy-2,6-dimethylphenyl)piperidin-4-yl)oxy)phenyl)-4-methyl-3-(trifluoromethyl)-4,5-dihydro-1H-pyrazol-5-yl)acetic acid] | 3060

The remaining compounds from weak to strong by EC50, led by results:

Row | EC50 [nM] | SMILES
22 | 398 | C[C@@H]1C(C(F)(F)F)=NN(c2ccc(OC3CCN(c4ccc(Cl)cc4F)CC3)cc2)[C@H]1CC(=O)O [Example 63, 2-((4S,5S)-1-(4-((1-(4-Chloro-2-fluorophenyl)piperidin-4-yl)oxy)phenyl)-4-methyl-3-(trifluoromethyl)-4,5-dihydro-1H-pyrazol-5-yl)acetic acid]
23 | 390 | COc1ccc(F)c(N2CCC(Oc3ccc(N4N=C(C(F)(F)F)[C@@H](CC(C)C)[C@@H]4CC(=O)O)cc3)CC2)c1 (single isomer, unassigned) [Example 89, Isomer 2]
24 | 382 | C[C@@H]1C(C(F)(F)F)=NN(c2ccc(OC3CCN(c4ccc(F)cc4Cl)CC3)cc2)[C@H]1CC(=O)O [Example 62, 2-((4S,5S)-1-(4-((1-(2-Chloro-4-fluorophenyl)piperidin-4-yl)oxy)phenyl)-4-methyl-3-(trifluoromethyl)-4,5-dihydro-1H-pyrazol-5-yl)acetic acid]
25 | 315 | CCOc1cc(F)c(F)c(N2CCC(Oc3ccc(N4N=C(C(F)(F)F)[C@@H](C)[C@@H]4CC(=O)O)cc3)C(C)C2)c1 (single isomer, unassigned) [Example 10 (Isomer 2)]
26 | 293 | C[C@@H]1C(C(F)(F)F)=NN(c2ccc(OC3CCN(c4ncccc4Cl)CC3)cc2)[C@H]1CC(=O)O [Example 58, 2-((4S,5S)-1-(4-((1-(3-Chloropyridin-2-yl)piperidin-4-yl)oxy)phenyl)-4-methyl-3-(trifluoromethyl)-4,5-dihydro-1H-pyrazol-5-yl)acetic acid]
27 | 277 | CCOc1cc(N2CC[C@@H](Oc3ccc(N4N=C(C(F)(F)F)[C@@H](C)[C@@H]4CC(=O)O)cc3)[C@H](C)C2)c(F)cn1 [Example 85, 2-((4S,5S)-1-(4-(((3R,4R)-1-(2-Ethoxy-5-fluoropyridin-4-yl)-3-methylpiperidin-4-yl)oxy)phenyl)-4-methyl-3-(trifluoromethyl)-4,5-dihydro-1H-pyrazol-5-yl)acetic acid]
28 | 237 | COc1cc(F)c(F)c(N2CCC(Oc3ccc(N4N=C(C(F)(F)F)[C@@H](C)[C@@H]4CC(=O)O)cc3)C(C)C2)c1 (single isomer, unassigned) [Example 8 (Isomer 2)]
29 | 59 | CCOc1ccc(F)c(N2CCC(Oc3ccc(N4N=C(c5ccc(C#N)cc5F)[C@@H](C)[C@@H]4CC(=O)O)cc3)CC2)c1 [Example 94, 2-((4S,5S)-3-(4-Cyano-2-fluorophenyl)-1-(4-((1-(5-ethoxy-2-fluorophenyl)piperidin-4-yl)oxy)phenyl)-4-methyl-4,5-dihydro-1H-pyrazol-5-yl)acetic acid]
30 | 45 | COc1cc(N2CC[C@@H](Oc3ccc(N4N=C(C(F)(F)F)[C@@H](C)[C@@H]4CC(=O)O)cc3Br)[C@H](C)C2)c(Cl)cn1 [Example A4, 2-((4S,5S)-1-(3-Bromo-4-(((3R,4R)-1-(5-chloro-2-methoxypyridin-4-yl)-3-methylpiperidin-4-yl)oxy)phenyl)-4-methyl-3-(trifluoromethyl)-4,5-dihydro-1H-pyrazol-5-yl)acetic acid]
